In patent publication US20060229433A1, “Modified antiviral peptides with increased activity and cell membrane affinity” (priority 2003, published 2006):
Where “and” joins values, the source holds several entries; their conditions need not be identical. Equal entries are not always repeated. Square brackets hold non-standard residues; d marks the D form. Peptide text beside a SMILES is read from it. Ava = NCCCCC(=O)O

Tests used:
Format in all cases: cell-based
HIV-1 NL 4-3 [1] = assay: HIV-1 infection of C8166 cells (syncytia formation, p24 ELISA) with HIV-1 NL 4-3; conditions: for Day 7 syncitia formed / P 24: Table 6; for P 24: Day 7
Procedure, shortened: (§1)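 C8166 T-cells were preincubated with peptide for 1 h at 37 °C, then exposed for 1 h to HIV-1 at 1000 TCID50/ml, washed, and cultured with peptide kept present throughout, with medium replaced at day 4. Infection was scored by syncytia formation and by supernatant p24 ELISA, with at least two runs in duplicate.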

HIV-1 NDK = assay: HIV-1 infection of C8166 cells (syncytia formation, p24 ELISA) with HIV-1 NDK; design: key to syncitia formed, Day 4 / syncitia formed, Day 5 / syncitia formed, Day 6 / syncitia formed, Day 7: ++, +, (+), (+)− and − represent decreasing numbers of syncitia formed; ++, +, (+), (+)− and − represent decreasing numbers of syncitia formed; ++, +, (+), (+)− and − represent decreasing numbers of syncitia formed; ++, +, (+), (+)− and − represent decreasing numbers of syncitia formed; ++, +, (+), (+)− and − represent decreasing numbers of syncitia formed; conditions: for P 24: P 24 after Day 7
Procedure, shortened: as §1

HIV-1 NL 4-3 [2] = assay: HIV-1 infection of C8166 cells (syncytia formation, p24 ELISA) with HIV-1 NL 4-3; design: key: ++, +, (+), (+)− and − represent decreasing numbers of syncitia formed; ++, +, (+), (+)− and − represent decreasing numbers of syncitia formed; ++, +, (+), (+)− and − represent decreasing numbers of syncitia formed; ++, +, (+), (+)− and − represent decreasing numbers of syncitia formed; ++, +, (+), (+)− and − represent decreasing numbers of syncitia formed; conditions: Table 6
Procedure, shortened: as §1

[3] = C8166 cells, HIV-1 subtype B NL 4-3, Table 9, two lines = tested twice, 8 days apart

## C[C@H](NC(=O)[C@H](CCCNC(=N)N)NC(=O)CNC(=O)[C@@H]1CCCN1C(=O)CN)C(=O)N[C@@H](Cc1ccccc1)C(=O)NCCCCC(=O)O [SPC3 monomer valeric acid, GPGRAF-NHCH2CH2CH2CH2COOH] (H-GPGRAF[Ava]-OH; N-terminus assumed)
HIV-1 NL 4-3 [1]; 0.005 μM
  Day 7 syncitia formed: ++/T
  P 24: 23810 pg/mL
HIV-1 NL 4-3 [1]; 0.01 μM
  Day 7 syncitia formed: ++/T
  P 24: 21810 pg/mL
HIV-1 NL 4-3 [1]; C8166 cells, HIV-1 subtype B NL 4-3, Table 3
  IC50: 20 nM
HIV-1 NL 4-3 [1]; [3]
  IC50: 50 nM
  IC100: 5 µM
HIV-1 NL 4-3 [1]; 0.5 μM
  P 24: 1840 pg/mL and 2830 pg/mL
HIV-1 NL 4-3 [1]; 1 μM
  P 24: 325 pg/mL and 445 pg/mL
HIV-1 NL 4-3 [1]; 5 μM
  P 24: 3 pg/mL
HIV-1 NDK; 0.005 μM
  syncitia formed, Day 4: −
  syncitia formed, Day 5: +
  syncitia formed, Day 6: ++
  syncitia formed, Day 7: ++/T
  P 24: 23810 pg/mL
HIV-1 NDK; 0.01 μM
  syncitia formed, Day 4: −
  syncitia formed, Day 5: +
  syncitia formed, Day 6: ++
  syncitia formed, Day 7: ++/T
  P 24: 21810 pg/mL
HIV-1 NDK; 0.05 μM
  syncitia formed, Day 4: −
  syncitia formed, Day 5: +
  syncitia formed, Day 6: ++
  syncitia formed, Day 7: ++
  P 24: 23810 pg/mL and 21810 pg/mL
HIV-1 NDK; 0.1 μM
  syncitia formed, Day 4: −
  syncitia formed, Day 5: +
  syncitia formed, Day 6: ++
  syncitia formed, Day 7: ++
  P 24: 11810 pg/mL and 15307 pg/mL
HIV-1 NDK; 0.5 μM
  syncitia formed, Day 4: −
  syncitia formed, Day 5: −
  syncitia formed, Day 6: +
  syncitia formed, Day 7: ++
  P 24: 11840 pg/mL and 12240 pg/mL
HIV-1 NDK; 1 μM
  syncitia formed, Day 4: −
  syncitia formed, Day 5: −
  syncitia formed, Day 6: −
  syncitia formed, Day 7: (+)
HIV-1 NDK; 5 μM
  syncitia formed, Day 4: −
  syncitia formed, Day 5: −
  syncitia formed, Day 6: −
  syncitia formed, Day 7: −
HIV-1 NDK; HIV 1 NDK, Table 10
  IC50: 200 nM
  IC100: 5 µM
HIV-1 NL 4-3 [2]; 0.005 μM
  Day 4 syncitia formed: −
  Day 5 syncitia formed: +
  Day 6 syncitia formed: ++
HIV-1 NL 4-3 [2]; 0.01 μM
  Day 4 syncitia formed: −
  Day 5 syncitia formed: +
  Day 6 syncitia formed: ++
HIV-1 NL 4-3 [2]; 0.05 μM
  Day 4 syncitia formed: −
  Day 5 syncitia formed: +
  Day 6 syncitia formed: ++
  Day 7 syncitia formed: ++
HIV-1 NL 4-3 [2]; 0.1 μM
  Day 4 syncitia formed: −
  Day 5 syncitia formed: (+)
  Day 6 syncitia formed: + and ++
  Day 7 syncitia formed: ++
HIV-1 NL 4-3 [2]; 0.5 μM
  Day 4 syncitia formed: −
  Day 5 syncitia formed: −
  Day 6 syncitia formed: (+)
  Day 7 syncitia formed: +
HIV-1 NL 4-3 [2]; 1 μM
  Day 4 syncitia formed: −
  Day 5 syncitia formed: −
  Day 6 syncitia formed: −
  Day 7 syncitia formed: (+)
HIV-1 NL 4-3 [2]; 5 μM
  Day 4 syncitia formed: −
  Day 5 syncitia formed: −
  Day 6 syncitia formed: −
  Day 7 syncitia formed: −
